The results in this text go back to ChEMBL document CHEMBL3091431, “Aminopyridyl/Pyrazinyl Spiro[indoline-3,4'-piperidine]-2-ones As Highly Selective and Efficacious c-Met/ALK Inhibitors” (ACS Med Chem Lett, 2013).

For data set [1], the target named is Hepatocyte growth factor receptor (Homo sapiens, UniProt P08581). Put plainly: Inhibition of c-Met phosphorylation in human […] cells after 1 hr by western blotting. It counts as cell-based.
Data set [2] can be described thus: Cmax in BALB/c mouse at 20 mg/kg, po. On the set-up: dose 20 mg/kg, route oral. The note with it: in vivo. Type of data set: ADME, organism-based.
Data set [3] relates to Mus musculus. Nature of the data set: Bioavailability in BALB/c mouse at 5 mg/kg, iv. Type of data set: ADME, organism-based. The note with it: in vivo.
Data set [4] can be described thus: AUC (0 to infinity) in BALB/c mouse at 5 mg/kg, iv. Type of data set: ADME, organism-based. Further details: time infinity, dose 5 mg/kg, route intravenous. Conditions: plasma.
A short description of data set [5]: Cmax in BALB/c mouse at 5 mg/kg, iv. Type of data set: ADME, organism-based. On the set-up: dose 5 mg/kg, route intravenous. Conditions: in vivo.
Data set [6] concerns the target T1, ALK tyrosine kinase receptor (Homo sapiens, UniProt Q9UM73). Type of data set: cell-based.
Target sequence in this assay (Q9UM73 19-1620 limits assumed): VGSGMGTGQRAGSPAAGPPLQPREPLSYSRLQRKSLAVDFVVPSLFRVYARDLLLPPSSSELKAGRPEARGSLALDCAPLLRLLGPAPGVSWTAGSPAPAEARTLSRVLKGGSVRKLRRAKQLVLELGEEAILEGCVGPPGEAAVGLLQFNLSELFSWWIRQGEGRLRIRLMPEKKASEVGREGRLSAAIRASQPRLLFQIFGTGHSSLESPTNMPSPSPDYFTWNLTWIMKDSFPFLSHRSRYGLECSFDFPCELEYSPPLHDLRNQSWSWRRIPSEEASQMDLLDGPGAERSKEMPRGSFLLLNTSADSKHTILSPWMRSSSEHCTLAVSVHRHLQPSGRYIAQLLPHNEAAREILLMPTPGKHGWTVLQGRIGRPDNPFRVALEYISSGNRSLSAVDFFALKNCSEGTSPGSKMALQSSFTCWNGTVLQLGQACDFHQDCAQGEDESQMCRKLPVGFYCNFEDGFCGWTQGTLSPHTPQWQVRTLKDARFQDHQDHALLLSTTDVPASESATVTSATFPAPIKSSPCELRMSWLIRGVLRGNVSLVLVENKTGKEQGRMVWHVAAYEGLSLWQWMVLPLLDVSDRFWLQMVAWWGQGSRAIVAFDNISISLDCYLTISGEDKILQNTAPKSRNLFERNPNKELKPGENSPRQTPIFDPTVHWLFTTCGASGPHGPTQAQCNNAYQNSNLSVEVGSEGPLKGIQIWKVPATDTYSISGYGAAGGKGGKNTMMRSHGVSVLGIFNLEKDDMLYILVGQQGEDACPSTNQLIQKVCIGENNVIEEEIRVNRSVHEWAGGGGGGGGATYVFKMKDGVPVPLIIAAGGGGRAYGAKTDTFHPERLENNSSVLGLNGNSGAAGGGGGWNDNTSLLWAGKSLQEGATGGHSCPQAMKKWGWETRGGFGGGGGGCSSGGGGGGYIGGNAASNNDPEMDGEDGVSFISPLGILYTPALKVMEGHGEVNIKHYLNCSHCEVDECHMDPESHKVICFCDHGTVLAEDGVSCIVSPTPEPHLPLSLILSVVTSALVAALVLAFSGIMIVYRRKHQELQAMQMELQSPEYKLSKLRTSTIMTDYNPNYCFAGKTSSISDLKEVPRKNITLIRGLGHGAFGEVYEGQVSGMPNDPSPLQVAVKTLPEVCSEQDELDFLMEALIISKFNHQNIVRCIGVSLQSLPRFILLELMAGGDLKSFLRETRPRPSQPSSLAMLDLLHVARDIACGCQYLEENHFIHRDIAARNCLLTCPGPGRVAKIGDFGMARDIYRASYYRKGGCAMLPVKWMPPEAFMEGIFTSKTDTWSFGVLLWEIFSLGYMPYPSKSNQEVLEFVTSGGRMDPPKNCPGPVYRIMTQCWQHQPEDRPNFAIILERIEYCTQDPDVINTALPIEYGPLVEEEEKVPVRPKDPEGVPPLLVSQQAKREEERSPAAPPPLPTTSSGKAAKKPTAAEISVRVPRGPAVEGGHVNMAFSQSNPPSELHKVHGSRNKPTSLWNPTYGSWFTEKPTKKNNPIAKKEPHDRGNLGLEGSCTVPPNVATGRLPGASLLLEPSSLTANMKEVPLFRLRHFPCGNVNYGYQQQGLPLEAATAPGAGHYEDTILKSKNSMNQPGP
Description: Inhibition of NPM-fused ALK phosphorylation (unknown origin) expressed in human karpas 299 cells after 90 mins by Sandwich-ELISA
The target in data set [7] is T1, ALK tyrosine kinase receptor. Put plainly: Inhibition of human ALK (unknown origin) using poly[Glu:Tyr] as substrate by nanoliter kinase assay.
Target sequence in this assay (Q9UM73 whole entry): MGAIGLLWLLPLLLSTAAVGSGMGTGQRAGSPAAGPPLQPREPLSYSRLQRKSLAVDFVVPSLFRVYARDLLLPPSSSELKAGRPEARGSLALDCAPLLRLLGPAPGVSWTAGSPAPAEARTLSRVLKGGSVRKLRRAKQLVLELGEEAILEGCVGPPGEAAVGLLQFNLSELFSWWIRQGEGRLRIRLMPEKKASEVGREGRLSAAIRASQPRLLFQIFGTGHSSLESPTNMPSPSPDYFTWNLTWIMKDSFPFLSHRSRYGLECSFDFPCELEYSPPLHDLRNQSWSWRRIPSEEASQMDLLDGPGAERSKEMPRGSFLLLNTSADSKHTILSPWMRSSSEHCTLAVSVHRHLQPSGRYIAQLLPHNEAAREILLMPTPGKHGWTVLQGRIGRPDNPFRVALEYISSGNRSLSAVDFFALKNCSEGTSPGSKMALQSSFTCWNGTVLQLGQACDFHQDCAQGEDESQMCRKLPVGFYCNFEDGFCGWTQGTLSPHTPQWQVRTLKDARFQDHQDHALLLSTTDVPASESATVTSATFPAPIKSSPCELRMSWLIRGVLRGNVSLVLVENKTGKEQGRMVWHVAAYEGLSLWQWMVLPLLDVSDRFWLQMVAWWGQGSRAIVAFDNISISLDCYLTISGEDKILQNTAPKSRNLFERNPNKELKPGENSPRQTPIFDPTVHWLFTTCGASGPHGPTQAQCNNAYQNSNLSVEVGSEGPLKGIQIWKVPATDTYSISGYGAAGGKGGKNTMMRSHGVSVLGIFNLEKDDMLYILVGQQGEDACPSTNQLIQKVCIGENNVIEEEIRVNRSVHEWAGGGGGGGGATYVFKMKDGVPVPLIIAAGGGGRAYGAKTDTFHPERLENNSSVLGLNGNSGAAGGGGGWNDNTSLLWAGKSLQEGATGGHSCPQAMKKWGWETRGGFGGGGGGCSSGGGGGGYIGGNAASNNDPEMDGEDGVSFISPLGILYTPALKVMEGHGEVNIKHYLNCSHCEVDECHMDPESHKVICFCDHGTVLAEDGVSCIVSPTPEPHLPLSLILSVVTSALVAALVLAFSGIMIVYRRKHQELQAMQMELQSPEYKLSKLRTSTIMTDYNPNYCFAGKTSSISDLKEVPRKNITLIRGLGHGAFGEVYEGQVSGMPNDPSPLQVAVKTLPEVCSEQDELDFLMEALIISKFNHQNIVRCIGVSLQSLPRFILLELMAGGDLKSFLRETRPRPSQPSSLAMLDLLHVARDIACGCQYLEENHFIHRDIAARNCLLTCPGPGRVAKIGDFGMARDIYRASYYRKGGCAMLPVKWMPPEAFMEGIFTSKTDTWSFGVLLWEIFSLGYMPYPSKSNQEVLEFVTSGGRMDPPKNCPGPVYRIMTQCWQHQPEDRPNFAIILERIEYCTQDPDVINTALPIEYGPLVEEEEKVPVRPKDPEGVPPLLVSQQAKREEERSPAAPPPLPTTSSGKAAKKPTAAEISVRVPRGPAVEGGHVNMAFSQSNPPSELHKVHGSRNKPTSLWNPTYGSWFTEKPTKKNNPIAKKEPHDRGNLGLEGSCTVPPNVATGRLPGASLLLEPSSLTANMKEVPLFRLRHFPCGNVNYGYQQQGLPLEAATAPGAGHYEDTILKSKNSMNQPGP
Data set [8] relates to Mus musculus. Nature of the data set: Toxicity in human GTL16 cells xenografted nu/nu mouse model assessed as change in body weight at 20 mg/kg, po qd for 14 days. It counts as organism-based. Conditions: in vivo, 336 h. On the set-up: dose 20 mg/kg, route oral.
Data set [9] is described as follows: Oral bioavailability in BALB/c mouse at 20 mg/kg. It counts as ADME, organism-based. The note with it: in vivo.
The nature of data set [10]: AUC (0 to infinity) in BALB/c mouse at 20 mg/kg, po. It counts as ADME, organism-based. Conditions: plasma. On the set-up: time infinity, dose 20 mg/kg, route oral.
A short description of data set [11]: cells. Conditions: Homo sapiens, U-87 MG, 48 h.
Description: Antiproliferative activity against human U87MG cells after 48 hrs by MTT assay
The nature of data set [12]: cells. The note with it: Homo sapiens, NCI-H441, 48 h.
Description: Antiproliferative activity against human H441 cells after 48 hrs by MTT assay
The test system of a further data set is NCI-H1993. Put plainly: cells. The note with it: Homo sapiens, NCI-H1993, 48 h.
A short description of data set [13]: cells. The note with it: Homo sapiens, GTL 16, 48 h.
Description: Antiproliferative activity against human GTL16 cells after 48 hrs by MTT assay
Data set [14] in a line: animal or person. The note with it: Homo sapiens, GTL 16, po, 336 h, read-out: TGI.
Description: Antitumor activity against human GTL16 cells xenografted in nu/nu mouse assessed as tumor growth inhibition at 40 mg/kg, po qd for 14 days
Data set [15] is described as follows: animal or person. Conditions: Homo sapiens, GTL 16, po, 336 h, read-out: TGI. This is another data set of the same source.
Description: Antitumor activity against human GTL16 cells xenografted in nu/nu mouse assessed as tumor growth inhibition at 20 mg/kg, po qd for 14 days

Hepatocyte growth factor receptor, sequence (P08581 whole entry): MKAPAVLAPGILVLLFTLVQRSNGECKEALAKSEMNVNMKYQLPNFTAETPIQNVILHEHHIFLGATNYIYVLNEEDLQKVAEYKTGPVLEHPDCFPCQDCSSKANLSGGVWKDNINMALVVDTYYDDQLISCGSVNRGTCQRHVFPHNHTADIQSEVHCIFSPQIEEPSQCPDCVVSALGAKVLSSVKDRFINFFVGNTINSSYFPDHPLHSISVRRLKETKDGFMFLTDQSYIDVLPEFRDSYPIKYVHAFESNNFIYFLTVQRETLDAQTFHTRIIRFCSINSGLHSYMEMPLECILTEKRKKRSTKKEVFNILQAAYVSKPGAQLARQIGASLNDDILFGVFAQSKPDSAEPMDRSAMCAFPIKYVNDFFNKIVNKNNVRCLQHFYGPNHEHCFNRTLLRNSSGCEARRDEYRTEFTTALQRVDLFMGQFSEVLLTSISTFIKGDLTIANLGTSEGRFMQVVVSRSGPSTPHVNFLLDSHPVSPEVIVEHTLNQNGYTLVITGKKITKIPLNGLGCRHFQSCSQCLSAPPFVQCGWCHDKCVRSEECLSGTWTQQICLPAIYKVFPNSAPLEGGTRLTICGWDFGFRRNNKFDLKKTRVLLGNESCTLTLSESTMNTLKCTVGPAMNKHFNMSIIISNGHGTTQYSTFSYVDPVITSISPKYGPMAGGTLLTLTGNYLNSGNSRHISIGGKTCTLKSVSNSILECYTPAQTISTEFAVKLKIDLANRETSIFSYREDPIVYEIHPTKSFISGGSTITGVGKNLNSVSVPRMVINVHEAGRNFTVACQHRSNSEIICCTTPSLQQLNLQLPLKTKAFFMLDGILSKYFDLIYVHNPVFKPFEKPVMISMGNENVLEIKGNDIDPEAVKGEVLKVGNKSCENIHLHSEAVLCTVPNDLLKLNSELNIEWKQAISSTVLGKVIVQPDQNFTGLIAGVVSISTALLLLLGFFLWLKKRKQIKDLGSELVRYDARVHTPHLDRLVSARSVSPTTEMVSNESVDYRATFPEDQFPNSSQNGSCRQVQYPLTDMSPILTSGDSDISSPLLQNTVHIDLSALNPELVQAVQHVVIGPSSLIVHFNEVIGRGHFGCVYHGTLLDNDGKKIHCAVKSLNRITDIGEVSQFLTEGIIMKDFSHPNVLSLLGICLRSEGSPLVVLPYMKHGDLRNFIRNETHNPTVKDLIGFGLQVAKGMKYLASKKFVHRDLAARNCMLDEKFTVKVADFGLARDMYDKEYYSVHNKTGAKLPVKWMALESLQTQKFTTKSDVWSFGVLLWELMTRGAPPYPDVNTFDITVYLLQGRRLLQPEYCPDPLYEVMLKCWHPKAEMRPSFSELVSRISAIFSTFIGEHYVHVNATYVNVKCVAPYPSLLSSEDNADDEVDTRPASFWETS
Description for NCI-H1993: Antiproliferative activity against human NCI-H1993 cells after 48 hrs by MTT assay

In turn, `CN1CCC2(CC1)C(=O)Nc1ccc(-c3cnc(N)c(OCc4c(Cl)ccc(F)c4Cl)c3)cc12` came in with a half-maximal inhibitory concentration (IC50) in [1] above 10000 nM.

Regarding `C[C@@H](Oc1cc(-c2ccc3c(c2)NC(=O)C32CCN(C)CC2)cnc1N)c1c(Cl)ccc(F)c1Cl`, the highest concentration (Cmax) in data set [2] worked out at 1450 nM; in data set [5], 1360 nM. In addition, the F with Mus musculus [3] came out at 100%. For the same compound, the area under the curve AUC(0-inf) stood at 1230 ng·h/mL in data set [4] and 2350 ng·h/mL in data set [10]. The IC50 in data set [6] is 39 nM; in data set [7], below 0.5 nM; in the data set “cells [11]” it was above 10000 nM; in “cells [12]”, 2820 nM; with NCI-H1993, 1580 nM; in “cells [13]” it was 20 nM. In the data set on Mus musculus [8], the Activity result is “Non-toxic”. This compound also yielded a bioavailability in data set [9] of 48%. The inhibition in vivo at 40 mg/kg in the data set “animal or person [14]” came to 87%. In “animal or person [15]”, the inhibition in vivo at 20 mg/kg worked out at 52%.
